# In patent US20230135093A1, “TRIAZOLYL DERIVATIVES AS GABA A ALPHA5 PAM” (Hoffmann-La Roche Inc., priority 2020, published 2023):
# Assays:
# h-GABA-A α5β3γ2 [1] = target: T1, h-GABA-A α5β3γ2 (Homo sapiens, UniProt P18507+P31644); assay: Two-electrode voltage clamp electrophysiology in Xenopus oocytes expressing GABAA receptors (modulation of GABA EC20 current); type: cell-based; conditions: Table 1; for Efficacy (GABA) %: % modulation of GABA EC20 = 100*(Fold increase-1); for Fold increase h-GABA-A α5β3γ2 oocyte: Xenopus oocytes, GABA EC20, test compound at approximatively 30 fold its Ki
# T1 construct: expressed in transfected cells; host or cells: Xenopus laevis oocytes, micro-injected with subunit RNA
# Description: Xenopus laevis oocytes at maturation stages V-VI were used for the expression of cloned mRNA encoding GABAA receptor subunits. Oocytes ready for RNA micro-injection were bought from Ecocyte, Castrop-Rauxel, Germany and stored in modified Barth's medium (composition in mM: NaCl 88, KCl 1, NaHCO3 2.4, HEPES 10, MgSO4 0.82, CaNO3 0.33, CaCl2 0.33, pH=7.5) at 20° C. until the experiment.
# Oocytes were plated in 96-well plates to be used in an automated instrument (Robo-ocyte, MultiChannelSystems, Reutlingen, Germany) for microinjection and electrophysiological recordings. Approximately 50 nl of an aqueous solution containing the RNA transcripts for the subunits of the desired GABAA receptor was injected into each oocyte. RNA concentrations ranged between 0.3 and 16 ng/μl/subunit and were adjusted in pilot experiments to obtain GABA responses of a suitable size and a maximal effect of the reference modulator, Beta-CCM (3-CCM), a betacarboline negative allosteric modulator (NAM) at the GABAA receptor benzodiazepine (BZD) binding site or Midazolam, a benzodiazepine positive allosteric modulator (PAM) at the GABAA receptor benzodiazepine (BZD) binding site. The concentration of the γ2 subunit encoding RNA usually was 5- to 10-fold higher than the RNAs encoding the other subunits. Oocytes were kept in modified Barth's medium (composition in mM: NaCl 88, KCl 1, NaHCO3 4, HEPES 10, MgSO4 0.82, CaNO3 0.33, CaCl2 0.33, pH=7.5) at 20° C. until the experiment.
# Electrophysiological experiments were performed on days 3 to 5 after the micro-injection of mRNA. During the experiment the oocytes were constantly superfused by a solution containing (in mM) NaCl 90, KCl 1, HEPES 5, MgCl2 1, CaCl2 1 (pH 7.4). Oocytes were impaled by two glass microelectrodes (resistance: 0.4 MQ) which were filled with a solution containing KCl 1M+K-acetate 1.5 M and voltage-clamped to −80 mV. The recordings were performed at room temperature using the Roboocyte two-electrode voltage clamp system (Multichannelsystem). After an initial equilibration period of 1.5 min GABA was added for 1.5 min at a concentration evoking approximately 20% of a maximal current response (EC20). After another rest interval of 2.5 min GABA was again added evoking a response of similar amplitude and shape. 0.5 min after the onset of this second GABA application the test compound, at a concentration corresponding to approximatively 30 fold its Ki, was added while GABA was still present. Current traces were recorded at a digitization rate of 10 Hz during and shortly before and after the GABA application.
# Each compound and concentration was tested on at least 3 oocytes. Different oocytes were used for different compound concentrations. β-CCM, a negative allosteric modulator, or Midazolam, a positive allosteric modulators, were tested on a few (3-6) oocytes on each 96-well plate for a positive control at a maximally effective. β-CCM inhibited the GABA-evoked current by approximatively 50% (Fold increase 0.5), while Midazolam potentiated the GABA-induced current by approximatively 150% (Fold increase 2.5).
# For the analysis, the digitized current traces of the first and second GABA response were superimposed and, if necessary, rescaled to equal maximal amplitudes. The ratio between the two responses during the time interval of test compound application was calculated point by point. The extremum of the resulting “ratio trace” was taken as the efficacy (“Fold increase”) of the compound expressed as “% modulation of GABA EC20” (100*(Fold increase-1)).
# h-GABA-A α5β3γ2 [2] = target: T1, h-GABA-A α5β3γ2; assay: [3H]flumazenil competition binding assay on membranes of HEK293 cells expressing GABAA receptors; conditions: Table 1; displacement of [3H]-Flumazenil (0.5 nM), HEK293 cells expressing human receptors, means of two determinations
# Description: The affinity of compounds at GABAA receptor subtypes was measured by competition for [3H]flumazenil (85 Ci/mmol; Roche) binding to HEK293 cells expressing rat (stably transfected) or human (transiently transfected) receptors of composition α1β3γ2, α2β3γ2, α3β3γ2 and α5β3γ2.
# Cell pellets were suspended in Krebs-tris buffer (4.8 mM KCl, 1.2 mM CaCl2, 1.2 mM MgCl2, 120 mM NaCl, 15 mM Tris; pH 7.5; binding assay buffer), homogenized by polytron for ca. 20 sec on ice and centrifuged for 60 min at 4° C. (50000 g; Sorvall, rotor: SM24=20000 rpm). The cell pellets were resuspended in Krebs-tris buffer and homogenized by polytron for ca. 15 sec on ice. Protein was measured (Bradford method, Bio-Rad) and aliquots of 1 mL were prepared and stored at −80° C.
# Radioligand binding assays were carried out in a volume of […] (96-well plates) which contained […] of cell membranes, [^3H]-Flumazenil at a concentration of 1 nM for α1, α2, α3 subunits and 0.5 nM for α5 subunits and the test compound in the range of […]. Nonspecific binding was defined by 10^−5 M diazepam and typically represented less than 5% of the total binding. Assays were incubated to equilibrium for 1 hour at 4° C. and harvested onto GF/C uni-filters (Packard) by filtration using a Packard harvester and washing with ice-cold wash buffer (50 mM Tris; pH 7.5). After drying, filter-retained radioactivity was detected by liquid scintillation counting. Ki values were calculated using Excel-Fit (Microsoft) and are the means of two determinations.
# In a preferred embodiment the compounds of the invention are binding selective for the α5 subunit relative to the α1, α2 and α3 subunit. Representative test results, obtained by the above described assay measuring binding affinity to HEK293 cells expressing human (h) receptors, are shown in the Table below.
SMILES,Efficacy (GABA) % (h-GABA-A α5β3γ2 [1]) [%],Fold increase h-GABA-A α5β3γ2 oocyte (h-GABA-A α5β3γ2 [1]),Ki (h-GABA-A α5β3γ2 [2]) [µM]
"Cc1nnn(-c2ccc(Cl)cc2F)c1Cn1ncc(N2CC(OCC(F)(F)F)C2)cc1=O [Example 34, 2-[[3-(4-chloro-2-fluoro-phenyl)-5-methyl-triazol-4-yl]methyl]-5-[3-(2,2,2-trifluoro-ethoxy)azetidin-1-yl]pyridazin-3-one]",85,1.85,0.0442
"Cc1nnn(-c2ccc(Cl)cc2F)c1Cn1ncc(N2CCO[C@@H](C)C2)cc1=O [Example 35, 2-[[3-(4-chloro-2-fluoro-phenyl)-5-methyl-triazol-4-yl]methyl]-5-[(2S)-2-methylmorpholin-4-yl]pyridazin-3-one]",130,2.3,0.0104
"Cc1nnn(-c2ccc(Cl)cc2F)c1Cn1ncc(N2CCO[C@H](C)C2)cc1=O [Example 36, 2-[[3-(4-chloro-2-fluoro-phenyl)-5-methyl-triazol-4-yl]methyl]-5-[(2R)-2-methylmorpholin-4-yl]pyridazin-3-one]",106,2.06,0.0124
"COc1ncccc1N1CCN(c2cnn(Cc3c(C)nnn3-c3ccc(Cl)cc3F)c(=O)c2)CC1 [Example 39, 2-[[3-(4-chloro-2-fluoro-phenyl)-5-methyl-triazol-4-yl]methyl]-5-[4-(2-methoxy-3-pyridyl)piperazin-1-yl]pyridazin-3-one]",108,2.08,0.0115
"CC(C)N1CCN(c2cnn(Cc3c(-c4ccc(Cl)cc4)nnn3C)c(=O)c2)C[C@@H]1C [Example 40, 2-[[5-(4-chlorophenyl)-3-methyl-triazol-4-yl]methyl]-5-[(3S)-4-isopropyl-3-methyl-piperazin-1-yl]pyridazin-3-one]",103,2.03,0.0202
"CCOC1CN(c2cnn(Cc3c(-c4ccc(Cl)cc4)nnn3C)c(=O)c2)C1 [Example 41, 2-[[5-(4-chlorophenyl)-3-methyl-triazol-4-yl]methyl]-5-(3-ethoxyazetidin-1-yl)pyridazin-3-one]",47,1.47,0.0377
"CC(C)O[C@@H]1CCN(c2cnn(Cc3c(-c4ccc(Cl)cc4F)nnn3C)c(=O)c2)C1 [Example 42, 2-((5-(4-chloro-2-fluoro-phenyl)-3-methyl-triazol-4-yl)methyl)-5-((3R)-3-isopropoxy-pyrrolidin-1-yl)pyridazin-3-one]",71,1.71,0.0183
"CCc1nccn1C1CCN(c2cnn(Cc3c(C)nnn3-c3ccc(Cl)cc3F)c(=O)c2)CC1 [Example 47, 2-[[3-(4-chloro-2-fluoro-phenyl)-5-methyl-triazol-4-yl]methyl]-5-[4-(2-ethylimidazol-1-yl)-1-piperidyl]pyridazin-3-one]",130,2.3,0.0132
"CC(C)OC1CN(c2cnn(Cc3c(-c4ccc(Cl)cc4F)nnn3C)c(=O)c2)C1 [Example 48, 2-((5-(4-chloro-2-fluoro-phenyl)-3-methyl-triazol-4-yl)methyl)-5-(3-isopropoxyazetidin-1-yl)pyridazin-3-one]",52,1.52,0.0085
"Cn1nnc(-c2ccc(Cl)cc2F)c1Cn1ncc(N2CC(OC3CCC3)C2)cc1=O [Example 49, 2-((5-(4-chloro-2-fluoro-phenyl)-3-methyl-triazol-4-yl)methyl)-5-(3-(cyclobutoxy)azetidin-1-yl)pyridazin-3-one]",73,1.73,0.0083
"CCCOC1CN(c2cnn(Cc3c(-c4ccc(Cl)cc4F)nnn3C)c(=O)c2)C1 [Example 51, 2-((5-(4-chloro-2-fluoro-phenyl)-3-methyl-triazol-4-yl)methyl)-5-(3-propoxyazetidin-1-yl)pyridazin-3-one]",94,1.94,0.0214

# Compounds with a lower Ki (h-GABA-A α5β3γ2 [2]), results first:
Efficacy (GABA) % (h-GABA-A α5β3γ2 [1]) [%],Fold increase h-GABA-A α5β3γ2 oocyte (h-GABA-A α5β3γ2 [1]),Ki (h-GABA-A α5β3γ2 [2]) [µM],SMILES
78,1.78,0.0056,"Cc1nnn(-c2ccc(Cl)cc2F)c1Cn1ncc(N2CCC(n3ccnc3C)CC2)cc1=O [Example 38, 2-[[3-(4-chloro-2-fluoro-phenyl)-5-methyl-triazol-4-yl]methyl]-5-[4-(2-methylimidazol-1-yl)-1-piperidyl]pyridazin-3-one]"
97,1.97,0.0079,"Cn1nnc(-c2ccc(Cl)cc2F)c1Cn1ncc(N2CC(Oc3ccccn3)C2)cc1=O [Example 43, 2-((5-(4-chloro-2-fluoro-phenyl)-3-methyl-triazol-4-yl)methyl)-5-(3-(2-pyridyl-oxy)azetidin-1-yl)pyridazin-3-one]"
82,1.82,0.0044,"CC(C)N1CCN(c2cnn(Cc3c(-c4ccc(Cl)cc4F)nnn3C)c(=O)c2)C[C@@H]1C [Example 44, 2-((5-(4-chloro-2-fluoro-phenyl)-3-methyl-triazol-4-yl)methyl)-5-((3S)-4-isopropyl-3-methyl-piperazin-1-yl)pyridazin-3-one]"
115,2.15,0.0014,"C[C@H]1CN(c2cnn(Cc3c(-c4ccc(Cl)cc4F)nnn3C)c(=O)c2)CCO1 [Example 45, 2-((5-(4-chloro-2-fluoro-phenyl)-3-methyl-triazol-4-yl)methyl)-5-((2S)-2-methylmorpholin-4-yl)pyridazin-3-one]"
86,1.86,0.0016,"C[C@@H]1CN(c2cnn(Cc3c(-c4ccc(Cl)cc4F)nnn3C)c(=O)c2)CCO1 [Example 46, 2-((5-(4-chloro-2-fluoro-phenyl)-3-methyl-triazol-4-yl)methyl)-5-((2R)-2-methylmorpholin-4-yl)pyridazin-3-one]"
67,1.67,0.0052,"Cn1nnc(-c2ccc(Cl)cc2F)c1Cn1ncc(N2CC(OCC(F)(F)F)C2)cc1=O [Example 50, 2-((5-(4-chloro-2-fluoro-phenyl)-3-methyl-triazol-4-yl)methyl)-5-(3-(2,2,2-trifluoro-ethoxy)azetidin-1-yl)pyridazin-3-one]"
